Measurements from US11717557B2, “Use of PRG4 as an anti-inflammatory agent” (Lubris LLC, priority 2015, dated 2023).

Legend:
CD44 IgG1Fc = target: T1, CD44 IgG1Fc (Homo sapiens, UniProt P16070); experiment: Direct ELISA: binding of coated macromolecules to CD44-IgG1Fc versus IgG1Fc; details: wells coated at 400 μg/mL; CD44-IgG1Fc or IgG1Fc 1 μg/mL; p<0.001 where significant
T1 construct: purchased R & D systems
Experimental: High-binding microtiter plates (Corning, Sigma Aldrich, USA) were coated with rhPRG4 (Mr≅240 KDa), high molecular weight HA (HMW HA; Mr≈1,500 KDa) (R & D System, USA), medium molecular weight HA (MMW HA; Mr≈300 KDa) (R & D System) and vitronectin (Mr≅75 KDa) (Sigma Aldrich) at 400 μg/mL in PBS buffer (100 μL per well) overnight at 4° C. rhPRG4 is a full-length product produced by CHO-M cells (Lubris, Framingham, Mass., USA). Following washing with PBS+0.1% Tween 20, wells were blocked with 2% bovine serum albumin (BSA; 300 μL per well) for at least 2 hours at room temperature. CD44-IgG1Fc (R & D systems) or IgG1Fc (R & D systems), each at 1 μg/mL (100 μl per well), were added to the plate and incubated for 60 min at room temperature. Following washing with PBS+0.1% tween 20, anti-IgG1Fc-HRP (Sigma Aldrich) was added at 1:10,000 dilution (100 μL per well) and incubated for 60 min at room temp. Following washing with PBS+0.1% tween 20, the assay was developed using 1-step Turbo TMB ELISA reagent (ThermoScientific, USA) and absorbance was measured at 450 nm. The data represents an average of 4 independent assays, each with triplicate wells per group.

Prg4−/− synoviocytes = experiment: Cytokine-induced Prg4−/− synoviocyte proliferation; type: cell-based, mice; details: p<0.001
Experimental: rhPRG4 binding to CD44 and competition with high molecular weight hyaluronic acid (HMW HA) was evaluated using a direct enzyme linked immunosorbent assay (ELISA) and surface plasmon resonance. Sialidase-A and O-glycosidase digestion of rhPRG4 was performed and CD44 binding was evaluated using ELISA. Rheumatoid arthritis fibroblast-like synoviocytes (RA-FLS) were stimulated with interleukin-1 beta (IL-1β) or tumor necrosis factor alpha (TNF-α) for 48 hours in the presence or absence of rhPRG4 or HMW HA at 20, 40 and 80 μg/mL and cell proliferation was measured. CD44 contribution was assessed by co-incubation with an anti-CD44 antibody (IM7). The anti-proliferative effect of rhPRG4 was investigated following treatment of Prg4−/− synoviocytes with IL-1β or TNF-α in the presence or absence of IM7.
Synovial tissue was harvested from Prg4−/− and Prg4+/+ male mice (8-10 weeks old; 5-8 animals per genotype) and digested with pronase enzyme (2 mg/mL; Sigma Aldrich) in sterile HBSS buffer for 30 min at 37° C. with shaking. This was followed by digestion with type I collagenase (1 mg/mL; Sigma Aldrich) for 4 hours at 37° C. with shaking. The enzymatic reaction was stopped using DMEM+10% FBS. Cells were grown in DMEM+10% FBS and Prg4−/− synoviocytes were used between 2nd and 4th passages while Prg4+/+ synoviocytes were used in their second passage.

whole citrated blood = experiment: Lubricin on LPS-mediated inflammatory cytokine generation in whole blood; type: cell-based, human; details: LPS 10 ng/mL then lubricin 0.57 mg/mL, versus LPS alone
Experimental: The effect of lubricin on LPS-mediated inflammatory cytokine generation was studied using Biochip Array technology. In these studies LPS alone at 10 ng/mL and LPS pre-supplementation at 10 ng/mL followed by lubricin supplementation at 0.57 mg/mL were compared in the whole citrated blood for the generation of various inflammatory cytokines. All samples were incubated for 60 minutes and centrifuged to obtain plasma. This plasma was subsequently analyzed using the biochip array for inflammatory cytokines. LPS was supplemented to whole blood in a 1:10 dilution.

human whole blood = experiment: Lubricin on tissue factor mediated inflammatory cytokine generation in whole blood; type: cell-based
Experimental: The effect of lubricin on recombinant tissue factor (TF) mediated inflammatory cytokine generation was studied using Biochip Array technology. In these studies recombiplastin brand (IL Laboratories) tissue factor was used to trigger the generation of inflammatory cytokines in human whole blood. The effect of lubricin at 0.57 mg/mL was studied by supplementing this agent prior to the addition of tissue factor to the whole blood. Tissue factor alone served as a positive control. The blood samples were centrifuged and plasma retrieved. This plasma was then profiled for the inflammatory cytokine profile on the Randox Biochip arrays. TF was supplemented to whole blood in a 1:10 dilution.

[1] = Serum cytokine levels after DMM surgery and intraarticular lubricin; type: in vivo, rat; details: single intraarticular dose 200 μg/kg seven days after DMM surgery; samples 3 weeks after dose; versus saline
Experimental: In order to determine if lubricin could modulate pro-inflammatory cytokine levels in vivo, a rat model was used. Nine rats were subject to surgery to destabilize the medial meniscus (DMM surgery). Seven days after surgery, each rat received a single intraarticular dose of lubricin of 200 μg/kg. Control rats received an injection of an equal volume of saline. Cytokine levels in serum samples taken from the […] were compared with […] who received surgery but no dose of lubricin post-surgery. Samples were drawn 3 weeks after the dose of lubricin was administered and analyzed using the Luminex Multiplex platform. The results are shown in FIG. 13 where the measured levels of EPO, IL-13, IL-10, IL-18, IL-1α, IL-2, MCSF, IL-1β, IL-4, IFN-γ, MIP-3α, GMCSF, IL-7, TNF-α, VEGF, MCP-1, IL-5, G-CSF, RANTES, IL-6, GRO, IL-17α, and IL-12p70 are shown. The levels of IL-18, MCSF, MCP-1, RANTES, and GRO were all reduced in rats receiving lubricin as compared to rats that were injected with saline alone.

T1 sequence (P16070 with tags, fused parts or gaps limits assumed): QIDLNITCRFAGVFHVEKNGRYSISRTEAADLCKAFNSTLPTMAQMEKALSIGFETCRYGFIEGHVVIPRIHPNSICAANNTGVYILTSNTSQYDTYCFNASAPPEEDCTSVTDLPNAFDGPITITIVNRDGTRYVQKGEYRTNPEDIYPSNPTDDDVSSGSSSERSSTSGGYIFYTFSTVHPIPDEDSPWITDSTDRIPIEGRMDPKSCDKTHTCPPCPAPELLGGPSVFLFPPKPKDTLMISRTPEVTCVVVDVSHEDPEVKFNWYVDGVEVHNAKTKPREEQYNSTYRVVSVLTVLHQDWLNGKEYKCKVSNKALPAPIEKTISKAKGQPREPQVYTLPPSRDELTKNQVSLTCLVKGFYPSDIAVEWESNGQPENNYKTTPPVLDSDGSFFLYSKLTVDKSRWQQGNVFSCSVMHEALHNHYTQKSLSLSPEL

## rhPRG4: full-length recombinant human PRG4 (lubricin) glycoprotein produced by CHO-M cells (Lubris), Mr≅240 KDa
CD44 IgG1Fc
  450 nm absorbance in the CD44-IgG1Fc group versus the IgG1Fc group: significantly higher
Prg4−/− synoviocytes
  IL-1β induced proliferation of Prg4−/− synoviocytes: significantly inhibited
  TNF-α induced proliferation of Prg4−/− synoviocytes: significantly inhibited
Whole citrated blood; 60 minutes
  IL-4, IL-6, IL-8, IL-10, VEGF, TNF-α, IL-1β, MCP-1 and EGF: decrease
Whole citrated blood
  EGF, IL10, VEGF, MCP1, IL1b and TNF levels: marked decrease
Human whole blood; lubricin 0.57 mg/mL before tissue factor (1:10), versus TF alone
  IL-6, IL-8, VEGF, TNF-α, IL-1α, IL-1β, MCP-1 and EGF: decrease
Human whole blood; lubricin 0.57 mg/mL, tissue factor supplemented samples
  TNF-α and VEGF levels: pronounced decrease
[1]
  serum levels of IL-18, MCSF, MCP-1, RANTES and GRO: reduced
